The values that follow come from patent US20090215775A1, “Sulphonamido-Substituted Cyclohexyl Sulphones for Treatment of Cancer” (priority 2005, published 2009).

The test concerns Cells expressing Notch (ALL-SIL, DND-41, HPB-ALL or TALL-1). Put plainly: Assay for Cell Cycle Arrest (propidium iodide, FACS). It counts as cell-based. The conditions noted are these: concentrations up to 10 μM; incubation typically 4-8 days; in comparison to untreated controls. The protocol: Cells expressing Notch (ALL-SIL, DND-41, HPB-ALL or TALL-1) (Weng et al, Science, 306 (2004), 269-71) are incubated in the presence or absence of a compound of the instant invention (e.g. the compound of Example 47 below) at concentrations up to 10 μM. At the end of the incubation (typically 4-8 days), the cells are collected, fixed in 70% ethanol on ice for >2 hours, washed, then labelled for 15 min at 37° C. with propidium iodide (0.2 mg/ml) (PI) in the presence of 0.1% Triton X100 and 0.2 mg/ml RNase and subjected to FACS analysis.

As to `O=S(=O)(N[C@H]1CC[C@@](c2cc(F)ccc2F)(S(=O)(=O)c2ccc(Cl)cc2)CC1)C(F)(F)F` [Example 47, trifluoromethanesulfonic acid, N-[4-(4-chlorobenzenesulfonyl)-4-(2,5-difluorophenyl)-cyclohexyl]-amide], the “G2- and S-phase populations (FACS analysis)” value is “severe loss of G2- and S-phase populations”.
